Assay results published in patent US20020049190A1, “Pharmaceutical compositions comprising metal complexes” (priority 1999, published 2002).

What was measured:
[1] = system: murine (RAW264) macrophage cell lines; experiment: In vitro cell culture test: available nitric oxide (nitrite+nitrate) in activated macrophages; type: cell-based; details: LPS + interferon γ activated RAW264, 18 hours
Procedure: Concurrently, test compounds made up in MEM were added at non-cytotoxic concentrations. Control cells as above, which were activated to produce nitric oxide as above, but to which no test compound was added, were used as a measure of the amouint of nitric oxide produced by the cells during the tests. (See […]. Powell, O. J. Vaughan, G. R. Henderson, B. A. Murrer, […]. Bisland, […], Ruthenium complexes as nitric oxide scavengers: a potential therapeutic approach to nitric oxide-mediated diseases, Br. J Pharmacol., 1997, 122, 1441-1449.) Background nitric oxide was assessed by measurement of nitrate and nitrite in cells which were not activated. Cell viability was confirmed by Trypan blue dye exclusion at the end of the incubation period. Nitric oxide was determined by measurement of nitrate and nitrite in the cell supernatant. These anions are the stable end-products of reactions of NO in solution. Such reactions may or may not be catalysed in biological systems. The sum of nitrite and nitrate concentrations gives the total NO production. […] Nitrate was determined by reducing nitrate to nitrite with a bacterial nitrate reductase from Pseudomonas oleovorans and then measuring nitrite with the Griess reaction. In the absence of test compounds nitrite concentration plus nitrate concentration is equal to total nitric oxide production. The effect of test compounds on available nitric oxide (measured as nitrite+nitrate) was determined. The reduction in available nitric oxide compared with the control level may be taken as an indication of the degree of binding of NO by the test compounds.

[2] = In vitro test of NO uptake: manometer pressure and IR spectrum of freeze-dried product; type: binding; details: aqueous solution under argon, 20° C.-24° C., NO gas in headspace, one hour
Procedure: The resulting solution was placed in a three-necked pear-shaped flask and stirred by a magnetic stirrer at constant speed of 1000 rpm, at a constant temperature in the range 20° C.-24° C. A manometer was attached to the flask, and purified, dried nitric oxide gas (known volume in the range 3-5cm^3) was introduced via a septum, using a gas syringe, at atmospheric pressure into the headspace above the reaction solution. The pressure within the flask was recorded periodically over a period of one hour.
A control experiment was carried out according to the above but without any complex present.
On completion of each in vitro test, the reaction solution was freeze-dried. An infrared spectrum of the freeze-dried product provided information on metal-NO bond formation.

[3] = system: rat tail artery; experiment: Ex vivo test: perfused pre-contracted rat tail artery, vasoconstriction; details: for Vasoconstriction on application of test compound: 10 μM and 100 μM (Example 26 also 1000 μM); for % Vasoconstriction: artery pre-contracted with 6.5 μM phenylephrine; for Reversibility of the vasoconstriction: washout with Krebs solution
Source text: In the ex vivo tests, segments of rat tail artery (0.8-1.5 cm) were dissected free from normotensive adult Wistar rats. The arteries were internally perfused with Krebs solution (mM: NaCl 118, KCl 4.7, NaHCO3 25, NaH2PO4 1.15, CaCl22.5, MgCl2 1.1, glucose 5.6 and gassed with 95% O2/5% CO2 to maintain a pH of 7.4) in a constant flow perfusion apparatus. A differential pressure transducer located upstream of the vessel detected changes in back pressure. The rat tail artery preparation was pre-contracted with 6.5 μM phenylephrine to give a physiologically normal pressure of 100-120 mm Hg. The pre-contracted vessels were then perfused with the test compound. The arteries were perfused with Krebs solution between applications of test compound to wash out the test compound.
Pressure changes in the system served to indicate artery vasoconstriction. The vasoconstriction is a direct result of the removal of endogenous nitric oxide (edrf) from the endothelial cells of the rat tail artery.

[4] = system: rat P22 carcinosarcoma grown in BD-IX rats; experiment: Tumour growth, vascularisation and plasma nitrite/nitrate in rats bearing P22 carcinosarcoma; type: in vivo; details: for Nitrite/nitrate levels at Day 28 / Tumour vascularisation (MVD), Mean Chalkey score: 50 mg/kg daily i.p. Day 10-Day 28; for Nitrite/nitrate levels at Day 28: Griess assay, untreated control 7.75; for Tumour vascularisation (MVD), Mean Chalkey score: anti-CD31 immunostaining, untreated control 13.0; for Tumour growth: 50 mg/kg daily intraperitoneal, Day 10-Day 28, male BD-IX rats
Procedure: The effect of AMD6245 (Example 113) and AMD6221 (Example 8) on tumour growth was assessed using the rat P22 carcinosarcoma grown in BD-IX rats (Kennovin et al., in Biology of Nitric Oxide, Vol. 4, (S. Moncada, M. Feelisch, R. Busse, and A. E. Higgs, eds.), Portland Press, London, 1994, pp. 473-479). The tumour was implanted subcutaneously on the dorsal surface of male BD-IX rats on Day 0. Tumour growth was measured daily using calipers and tumour volume calculated from the equation […] where X=the short tumour axis and Y=the long tumour axis. Tumours were measurable by Day 10. AMD6245 and AMD6221 were administered daily by intraperitoneal injection at a dose of 50 mg/kg from Day 10-Day 28. Tumour vascularisation (Microvascular Density or MVD) was measured by Chalkley point counting after immunostaining with anti-CD31 antibody (Vermeulen et al., Eur. J. Cancer, 32A, 2474-2484, (1996)). Nitrite/nitrate was measured by the Griess assay (see Table 4). These anions are the stable end products of NO in solution. Nitrate was first reduced to nitrite by […]. The sum of nitrite and nitrate gives the total NO production.

Compound | % Decrease of Available Nitric Oxide ([1]; 100 μM test compound) [%] | Pressure decrease indicating binding of NO to the metal compound [2] | Vasoconstriction on application of test compound [3] | % Vasoconstriction ([3]; 10 μM) [%] | % Vasoconstriction ([3]; 100 μM) [%] | Reversibility of the vasoconstriction [3] | further results
O.O.O=C([O-])CN(CCN(CC(=O)[O-])CC(=O)O)CC(=O)[O-].[Cl-].[K+].[Ru+3] [Example 1, K[Ru(hedta)Cl]2H2O] | 75 | pressure decrease indicated binding of NO |  |  |  |  | % Decrease of Available Nitric Oxide ([1]; 25 μM test compound): 12%; % Decrease of Available Nitric Oxide ([1]; 50 μM test compound): 23%
CC(=O)C=C(C)[O-].O=C([O-])CN(CCN(CC(=O)O)CC(=O)O)CC(=O)[O-].[Ru+3] [Example 2, [Ru(H2edta)(acac)]] | 82 |  | dose-dependent vasoconstriction | 20 | 69 | reversible by washout | 
O.O=C([O-])CN(CCO)CCN(CC(=O)[O-])CC(=O)[O-].[Cl-].[K+].[Ru+3] [Example 3, K[Ru(hedtra)Cl]H2O] | 42 | pressure decrease indicated binding of NO | dose-dependent vasoconstriction | 17 | 59 | reversible by washout | 
O.O=C([O-])c1cccc(C(=O)[O-])n1.O=C([O-])c1cccc(C(=O)[O-])n1.[K+].[Ru+3] [Example 4, K[Ru(dipic)2]H2O] |  | pressure decrease indicated binding of NO |  |  |  |  | 
O.O=C([O-])CN(CCN(CC(=O)O)CC(=O)O)CC(=O)[O-].[Cl-].[Cl-].[K+].[Ru+3] [Example 6, K[Ru(H2edta)Cl2]H2O] | 77 | pressure decrease indicated binding of NO |  |  |  |  | 
CC(=O)[O-].CC(=O)[O-].CC(=O)[O-].CC(=O)[O-].[Cl-].[Ru+3].[Ru+3] [Example 14, [Ru2(OAc)4]Cl] | 47 |  | dose-dependent vasoconstriction | 11 | 40 | reversible by washout | 
Cc1occc(=O)c1[O][Ru]([O]c1c(C)occc1=O)[O]c1c(C)occc1=O [Example 26, [Ru(maltol)3]] | 71 |  | dose-dependent vasoconstriction | 10 | 18 | reversible by washout | % Vasoconstriction ([3]; 1000 μM): 25%
K[Ru(H2dtpa)Cl]H2O [Example 8] |  | pressure decrease indicated binding of NO |  |  |  |  | Nitrite/nitrate levels at Day 28 [4]: 5.09 μmoles/litre plasma; Tumour vascularisation (MVD), Mean Chalkey score [4]: 5.3; Tumour growth [4]: inhibited the growth
K[Ru(hnta)2]½H2O [Example 7] |  | pressure decrease indicated binding of NO |  |  |  |  | 
[Ru(Hedta)]H2O [AMD6245] |  |  |  |  |  |  | Nitrite/nitrate levels at Day 28 [4]: 3.88 μmoles/litre plasma; Tumour vascularisation (MVD), Mean Chalkey score [4]: 3.0; Tumour growth [4]: inhibited the growth
[Ru(NH3)5Cl]Cl2 [Example 15] | 86 |  | dose-dependent vasoconstriction | 77 | 86 | reversible by washout | 
